Measurements taken from paper PMC10917278, “Structural insights into the modulation Of SOD1 aggregation By a fungal metabolite Phialomustin-B: Therapeutic potential in ALS” (PLOS ONE, 2024).

Tests used:
[1] = target: T1, SOD1^A4V (Homo sapiens, UniProt P00441, A5V); test: Analytical size-exclusion chromatography (SEC) aggregation assay, SOD1^A4V; type: biochemical
T1 construct: The full-length constructs of SOD1-wild type (aa: 1–145) and its corresponding SOD1 disease mutant, SOD1^A4V; His-tag (cleaved yes); made in house; host or cells: E. coli BL21 DE3
Procedure: Fig 6 Aggregation studies of metallated and reduced SOD1^WT and SOD1^A4V on treatment with PB. ThT fluorescence was monitored during the co-incubation of metallated SOD1^WT (50 μM) (a) or SOD1^A4V (50 μM) (b) with PB at 1:30 molar ratio at 37 °C with continuous shaking, under reduced conditions. The values were normalized to the maximal ThT intensity elicited by SOD1^WT or SOD1^A4V and fitted to a Boltzmann sigmoidal equation. The control and PB-treated species were compared to analyse the effects of PB on the aggregation of SOD1^WT and SOD1^A4V. Error bars indicate the standard deviation. Analytical SEC of metallated SOD1^WT (50 μM) (c) and SOD1^A4V (50 μM) (d) with PB were analyzed under reducing conditions before and after 24 hrs and 48 hrs incubation at 37 °C. The first peak eluting at the volume was denoted as oligomerized SOD1^WT/SOD1^A4V (L). The second, third, and fourth peaks were calculated as trimer (T), dimer (D), and monomer (M) species of SOD1^WT/SOD1^A4V running at 14.5 ml, 15.7 ml, and 16.5 ml, respectively. […]
Fig 7 Aggregation studies of de-metallated and reduced SOD1^WT and SOD1^A4V on treatment with PB. ThT fluorescence was monitored during the co-incubation of de-metallated SOD1^WT (50 μM) (a) or SOD1^A4V (50 μM) (b) with PB at 1:30 molar ratio at 37 °C with continuous shaking, under reduced conditions. […] Analytical SEC of de-metallated SOD1^WT (50 μM) (a) and SOD1^A4V (50 μM) (b) with PB were analysed under reducing conditions before and after 24 hrs and 48 hrs incubation at 37 °C. […] The second, third, and fourth peaks were calculated as trimer (T), dimer (D), and monomer (M) species of SOD1^WT/SOD1^A4V running at 14.5 ml, 15.7 ml, and 16.5 ml, respectively. […]
The anti-aggregation activity of PB was validated on the SOD1^WT and the disease mutant (SOD1^A4V) through size exclusion chromatography. The analytical size-exclusion chromatography is a gold standard method for comprehensively evaluating protein species through their molecular weight variations detected by the protein peaks’ elution volume (Ve). […]

[2] = target: T1, SOD1^A4V; test: Thioflavin T (ThT) fluorescence aggregation assay, SOD1^A4V; type: biochemical; conditions: for kapp / t50 / tlag: 37 °C, reduced conditions
Procedure: Following the co-crystal structure elucidation of SOD1 in complex with PB, we wanted to identify the effect of PB on the aggregation of SOD1^WT and its disease mutant, SOD1^A4V. A comprehensive analysis of the anti-aggregation propensity of PB was performed using a ThT-based fluorescence assay and analytical size-exclusion based chromatography (SEC) assay. We used Thioflavin-T, a β-sheet formation reporter, to assess the aggregation of SOD1. Time lag (tlag) is a kinetic parameter used to evaluate the lag phase of fibrillation. Fibril elongation was used to evaluate the rate of β sheet formation. […] Similar effects on lag time are also observed for SOD1^A4V. […] Moreover, ThT-based aggregation assays were also performed for the PB site-specific mutants, SOD1^A123F, SOD1^K9F, SOD1^L42R, and SOD1^G10P (S4a, S4c, S4e and S4g Fig). As expected based on the abovementioned MST results, the aggregation analysis is inconclusive as these mutants, which correspond to the ligand binding residues, cause a loss of protein-ligand interactions.
Fig 6 Aggregation studies of metallated and reduced SOD1^WT and SOD1^A4V on treatment with PB. ThT fluorescence was monitored during the co-incubation of metallated SOD1^WT (50 μM) (a) or SOD1^A4V (50 μM) (b) with PB at 1:30 molar ratio at 37 °C with continuous shaking, under reduced conditions. The values were normalized to the maximal ThT intensity elicited by SOD1^WT or SOD1^A4V and fitted to a Boltzmann sigmoidal equation. The control and PB-treated species were compared to analyse the effects of PB on the aggregation of SOD1^WT and SOD1^A4V. Error bars indicate the standard deviation. Analytical SEC of metallated SOD1^WT (50 μM) (c) and SOD1^A4V (50 μM) (d) with PB were analyzed under reducing conditions before and after 24 hrs and 48 hrs incubation at 37 °C. The first peak eluting at the volume was denoted as oligomerized SOD1^WT/SOD1^A4V (L). The second, third, and fourth peaks were calculated as trimer (T), dimer (D), and monomer (M) species of SOD1^WT/SOD1^A4V running at 14.5 ml, 15.7 ml, and 16.5 ml, respectively. […] The monomer (M), dimer (D), trimer (T), and large aggregate (L) species are shown as green, purple, red, and black dotted lines, respectively. All the experiments were performed for n = 3 biological replicates.
Fig 7 Aggregation studies of de-metallated and reduced SOD1^WT and SOD1^A4V on treatment with PB. ThT fluorescence was monitored during the co-incubation of de-metallated SOD1^WT (50 μM) (a) or SOD1^A4V (50 μM) (b) with PB at 1:30 molar ratio at 37 °C with continuous shaking, under reduced conditions. The values were normalized to the maximal ThT intensity elicited by SOD1^WT or SOD1^A4V and fitted to a Boltzmann sigmoidal equation. The control and PB-treated species were compared to analyse PB’s effects on the aggregation of SOD1^WT and SOD1^A4V. Analytical SEC of de-metallated SOD1^WT (50 μM) (a) and SOD1^A4V (50 μM) (b) with PB were analysed under reducing conditions before and after 24 hrs and 48 hrs incubation at 37 °C. The first peak eluting at the volume was denoted as oligomerized SOD1^WT (L) runs at 9.2 ml. The second, third, and fourth peaks were calculated as trimer (T), dimer (D), and monomer (M) species of SOD1^WT/SOD1^A4V running at 14.5 ml, 15.7 ml, and 16.5 ml, respectively. […] In the case of SOD1^A4V, PB eliminates the formation of large aggregates compared to the control (48hrs-EC, EC represents control with EDTA). The monomer (M), dimer (D), trimer (T), and large aggregate (L) species are shown as green, purple, red, and black dotted lines, respectively. All the experiments were performed for n = 3 biological replicates.
Aggregation assays were performed on SOD1^WT, the disease mutant A4V, and ligand-binding site-specific mutants to check the anti-aggregation activity of PB on the former. […] The ThT assay for the SOD1 aggregation was carried out per the recently published protocol. […]

[3] = De-metallated (5 mM EDTA) SOD1^A4V 50 μM with PB at 1:30 molar ratio
[4] = Metallated SOD1^A4V 50 μM with PB at 1:30 molar ratio

T1 sequence (P00441 whole entry A5V): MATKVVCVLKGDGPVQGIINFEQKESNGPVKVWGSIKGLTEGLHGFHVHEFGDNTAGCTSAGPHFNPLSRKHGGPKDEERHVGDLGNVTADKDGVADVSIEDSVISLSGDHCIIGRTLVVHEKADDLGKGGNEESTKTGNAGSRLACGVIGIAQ

For `CCCC[C@H](C)/C=C(C)/C=C/C(=O)O` [PB, (S, 2E, 4E)-4,6-dimethyldeca-2,4-dienoic acid], the “trimer population (SEC)” value ([1]; De-metallated (EDTA) SOD1^A4V 50 μM, PB 30X, reducing conditions) was “reduces the trimer population”, the “trimer populations (SEC)” value ([1]; Metallated SOD1^A4V 50 μM, PB 60X, reducing conditions) was “trimer populations were significantly reduced” and the “formation of toxic trimer species (SEC)” value ([1]; Metallated SOD1^A4V 50 μM, PB at a ratio of 1:30, reducing conditions) was “visibly reduced the formation of toxic trimer species”. It also gave a kapp [2, 3] of 0.05 h⁻¹, a t50 [2, 3] of 13.57 h and a tlag [2, 3] of 13.55 h. It also gave a kapp [2, 4] of 0.07 h⁻¹, a t50 [2, 4] of 10.45 h and a tlag [2, 4] of 10.44 h. For the same compound, the “ThT signal of SOD1^A4V aggregation” value ([2]; Metallated SOD1^A4V 50 μM, PB 1:30, versus control) was “drastic reduction in the ThT signal”.
